Results as given in US10287255B2, “Compounds as histone deacetylase 6 inhibitors and pharmaceutical compositions comprising the same” (CHONG KUN DANG PHARMACEUTICAL CORP., priority 2014, dated 2019).

Assays:
[1] = target: T1, human recombinant HDAC6 (Homo sapiens, UniProt Q9UBN7); experiment: HDAC6 enzyme activity inhibition assay (in vitro, fluorimetric); format: biochemical; conditions: for HDAC6 selectivity (fold): HDAC6 selectivity over HDAC1; for IC50: human recombinant HDAC6, fluorimetric kit, same protocol as HDAC1
T1 construct: purchased Calbiochem 382180
T1 sequence (Q9UBN7 1-1215): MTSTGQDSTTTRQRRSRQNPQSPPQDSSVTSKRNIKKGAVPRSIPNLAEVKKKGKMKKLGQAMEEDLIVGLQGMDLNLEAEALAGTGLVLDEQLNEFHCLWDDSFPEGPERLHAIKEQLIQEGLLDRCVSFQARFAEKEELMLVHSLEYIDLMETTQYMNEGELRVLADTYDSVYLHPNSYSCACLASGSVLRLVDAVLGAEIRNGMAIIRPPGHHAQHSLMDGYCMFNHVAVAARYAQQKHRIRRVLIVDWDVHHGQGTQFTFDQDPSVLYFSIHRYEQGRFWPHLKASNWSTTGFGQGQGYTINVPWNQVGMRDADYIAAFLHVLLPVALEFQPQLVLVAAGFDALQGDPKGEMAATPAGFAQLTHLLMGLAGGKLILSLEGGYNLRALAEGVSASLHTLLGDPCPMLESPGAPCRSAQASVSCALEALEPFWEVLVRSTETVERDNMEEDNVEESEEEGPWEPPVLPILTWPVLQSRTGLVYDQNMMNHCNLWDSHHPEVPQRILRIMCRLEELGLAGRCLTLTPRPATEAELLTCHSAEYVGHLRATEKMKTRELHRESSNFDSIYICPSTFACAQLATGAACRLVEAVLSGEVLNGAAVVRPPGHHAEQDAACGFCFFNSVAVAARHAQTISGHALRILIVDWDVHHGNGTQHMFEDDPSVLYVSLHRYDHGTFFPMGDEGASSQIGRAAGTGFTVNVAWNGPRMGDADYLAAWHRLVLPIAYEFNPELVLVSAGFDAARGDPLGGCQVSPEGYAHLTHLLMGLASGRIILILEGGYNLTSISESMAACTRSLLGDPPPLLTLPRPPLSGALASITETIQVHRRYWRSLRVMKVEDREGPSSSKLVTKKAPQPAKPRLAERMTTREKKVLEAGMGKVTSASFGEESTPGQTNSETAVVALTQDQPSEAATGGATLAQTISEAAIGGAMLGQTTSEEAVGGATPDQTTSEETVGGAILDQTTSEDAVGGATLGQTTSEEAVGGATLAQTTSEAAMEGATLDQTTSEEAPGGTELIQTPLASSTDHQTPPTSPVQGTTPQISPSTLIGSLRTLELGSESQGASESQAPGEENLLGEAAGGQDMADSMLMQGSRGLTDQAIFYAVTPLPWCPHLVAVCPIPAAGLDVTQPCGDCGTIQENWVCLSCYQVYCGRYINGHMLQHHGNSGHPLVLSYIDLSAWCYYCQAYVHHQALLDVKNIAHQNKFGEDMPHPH
Summary of the method: (§1)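 Human recombinant enzyme (0.3 μg for HDAC1) reacted with 10 μM Fluor de Lys-SIRT1 substrate and 5-fold compound dilutions at 30 °C for 60 min, then developer for 30 min. Fluorescence read at Ex 360/Em 460; IC50 calculated. HDAC6 run by the same protocol.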

[2] = target: T2, human recombinant HDAC1 (Homo sapiens, UniProt Q13547); experiment: HDAC1 enzyme activity inhibition assay (in vitro, fluorimetric); format: biochemical; conditions: human recombinant HDAC1, fluorimetric kit, 30° C. 60 minutes
T2 construct: purchased Enzo Life Science BML-SE456
Summary of the method: as §1

T2 sequence (Q13547 whole entry): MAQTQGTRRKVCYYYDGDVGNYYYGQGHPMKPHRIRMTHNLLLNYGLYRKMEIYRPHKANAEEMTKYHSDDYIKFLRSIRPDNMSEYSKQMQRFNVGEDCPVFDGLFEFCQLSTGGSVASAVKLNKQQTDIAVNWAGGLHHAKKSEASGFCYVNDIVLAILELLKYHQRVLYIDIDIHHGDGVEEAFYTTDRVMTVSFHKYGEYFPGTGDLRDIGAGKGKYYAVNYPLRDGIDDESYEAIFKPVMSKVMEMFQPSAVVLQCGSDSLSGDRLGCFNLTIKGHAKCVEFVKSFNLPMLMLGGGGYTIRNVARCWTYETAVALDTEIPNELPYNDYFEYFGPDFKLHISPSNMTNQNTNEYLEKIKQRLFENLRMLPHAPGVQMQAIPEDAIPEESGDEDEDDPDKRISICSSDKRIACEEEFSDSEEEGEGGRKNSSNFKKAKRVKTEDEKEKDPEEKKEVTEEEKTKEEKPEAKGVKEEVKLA

| HDAC6 selectivity (fold) [1] [fold] | IC50 [1] [nM] | IC50 [2] [nM] | SMILES |
| --- | --- | --- | --- |
| 6 | 255 | 1600 | C[C@@H]1CN(C(=O)c2cccc(-c3ccco3)c2)C[C@H](C)N1Cc1ccc(C(=O)NO)cc1 [Compound 257, 4-(((2S,6R)-4-(3-(furan-2-yl)benzoyl)-2,6-dimethylpiperazin-1-yl)methyl)-N-hydroxybenzamide] |
| 7 | 258 | 1700 | C[C@@H]1CN(C(=O)c2cccc(-c3ccoc3)c2)C[C@H](C)N1Cc1ccc(C(=O)NO)cc1 [Compound 258, 4-(((2S,6R)-4-(3-(furan-3-yl)benzoyl)-2,6-dimethylpiperazin-1-yl)methyl)-N-hydroxybenzamide] |
| 6 | 400 | 2500 | C[C@@H]1CN(C(=O)c2cccc(C3=CCOCC3)c2)C[C@H](C)N1Cc1ccc(C(=O)NO)cc1 [Compound 259, 4-(((2S,6R)-4-(3-(3,6-dihydro-2H-pyran-4-yl)benzoyl)-2,6-dimethylpiperazin-1-yl)methyl)-N-hydroxybenzamide] |
| 3 | 529 | 1700 | C[C@@H]1CN(C(=O)c2cccc(-c3ccncc3)c2)C[C@H](C)N1Cc1ccc(C(=O)NO)cc1 [Compound 260, 4-(((2S,6R)-2,6-dimethyl-4-(3-(pyridin-4-yl)benzoyl)piperazin-1-yl)methyl)-N-hydroxybenzamide] |
| 3 | 577 | 2000 | C[C@@H]1CN(C(=O)c2cccc(-c3cccnc3)c2)C[C@H](C)N1Cc1ccc(C(=O)NO)cc1 [Compound 261, 4-(((2S,6R)-2,6-dimethyl-4-(3-(pyridin-3-yl)benzoyl)piperazin-1-yl)methyl)-N-hydroxybenzamide] |
| 3 | 727 | 2400 | C[C@@H]1CN(C(=O)c2cccc(-c3ccnc(F)c3)c2)C[C@H](C)N1Cc1ccc(C(=O)NO)cc1 [Compound 262, 4-(((2S,6R)-4-(3-(2-fluoropyridin-4-yl)benzoyl)-2,6-dimethylpiperazin-1-yl)methyl)-N-hydroxybenzamide] |
| <7 | > 1000 | 6800 | C[C@@H]1CN(C(=O)c2cccc(C3=CCC(C)(C)CC3)c2)C[C@H](C)N1Cc1ccc(C(=O)NO)cc1 [Compound 263, 4-(((2S,6R)-4-(4′,4′-dimethyl-2′,3′,4′,5′-tetrahydro-[1,1′-biphenyl]-3-carbonyl)-2,6-dimethylpiperazin-1-yl)methyl)-N-hydroxybenzamide] |
| 36 | 337 | 12300 | C[C@@H]1CN(C(=O)c2ccccc2-c2ccco2)C[C@H](C)N1Cc1ccc(C(=O)NO)cc1 [Compound 276, 4-(((2S,6R)-4-(2-(furan-2-yl)benzoyl)-2,6-dimethylpiperazin-1-yl)methyl)-N-hydroxybenzamide] |
| 23 | 455 | 10400 | C[C@@H]1CN(C(=O)c2ccccc2-c2ccoc2)C[C@H](C)N1Cc1ccc(C(=O)NO)cc1 [Compound 277, 4-(((2S,6R)-4-(2-(furan-3-yl)benzoyl)-2,6-dimethylpiperazin-1-yl)methyl)-N-hydroxybenzamide] |
| 16 | 911 | 14400 | C[C@@H]1CN(C(=O)c2ccccc2C2=CCOCC2)C[C@H](C)N1Cc1ccc(C(=O)NO)cc1 [Compound 278, 4-(((2S,6R)-4-(2-(3,6-dihydro-2H-pyran-4-yl)benzoyl)-2,6-dimethylpiperazin-1-yl)methyl)-N-hydroxybenzamide] |
| >13 | 769 | > 10000 | C[C@@H]1CN(C(=O)c2ccccc2-c2cccnc2)C[C@H](C)N1Cc1ccc(C(=O)NO)cc1 [Compound 279, 4-(((2S,6R)-2,6-dimethyl-4-(2-(pyridin-3-yl)benzoyl)piperazin-1-yl)methyl)-N-hydroxybenzamide] |
| 46 | 388 | 17700 | C[C@@H]1CN(C(=O)c2ccccc2C2=CCC(C)(C)CC2)C[C@H](C)N1Cc1ccc(C(=O)NO)cc1 [Compound 280, 4-(((2S,6R)-4-(4′,4′-dimethyl-2′,3′,4′,5′-tetrahydro-[1,1′-biphenyl]-2-carbonyl)-2,6-dimethylpiperazin-1-yl)methyl)-N-hydroxybenzamide] |
| 154 | 23 | 3500 | C[C@@H]1CN(Cc2ccc(C(=O)NO)cc2)C[C@H](C)N1C(=O)c1ccccc1-c1ccco1 [Compound 283, 4-(((3R,5S)-4-(2-(furan-2-yl)benzoyl)-3,5-dimethylpiperazin-1-yl)methyl)-N-hydroxybenzamide] |

Continued, molecule first:

| SMILES | HDAC6 selectivity (fold) [1] [fold] | IC50 [1] [nM] | IC50 [2] [nM] |
| --- | --- | --- | --- |
| C[C@@H]1CN(Cc2ccc(C(=O)NO)cc2)C[C@H](C)N1Cc1ccc2ccccc2c1 [Compound 265, 4-(((3R,5S)-3,5-dimethyl-4-(naphthalen-2-ylmethyl)piperazin-1-yl)methyl)-N-hydroxybenzamide] | 84 | 74 | 6200 |
| C[C@@H]1CN(Cc2ccc(C(=O)NO)cc2)C[C@H](C)N1Cc1ccncc1 [Compound 266, 4-(((3R,5S)-3,5-dimethyl-4-(pyridin-4-ylmethyl)piperazin-1-yl)methyl)-N-hydroxybenzamide] | 68 | 282 | 19100 |
| C[C@@H]1CN(Cc2ccc(C(=O)NO)cc2)C[C@H](C)N1Cc1cccc(Cl)c1C(F)(F)F [Compound 267, 4-(((3R,5S)-4-(3-chloro-2-(trifluoromethyl)benzyl)-3,5-dimethylpiperazin-1-yl)methyl)-N-hydroxybenzamide] | 75 | 188 | 14200 |
| C[C@@H]1CN(Cc2ccc3ccccc3c2)C[C@H](C)N1Cc1ccc(C(=O)NO)cc1 [Compound 268, 4-(((2S,6R)-2,6-dimethyl-4-(naphthalen-2-ylmethyl)piperazin-1-yl)methyl)-N-hydroxybenzamide] | 2 | 1270 | 2800 |
| CC(C)CCN1[C@H](C)CN(Cc2ccc(C(=O)NO)cc2)C[C@@H]1C [Compound 270, N-hydroxy-4-(((3R,5S)-4-isopentyl-3,5-dimethylpiperazin-1-yl)methyl)benzamide] | >5 | 2220 | > 10000 |
| CC(C)CCN1C[C@@H](C)N(Cc2ccc(C(=O)NO)cc2)[C@@H](C)C1 [Compound 271, N-hydroxy-4-(((2S,6R)-4-isopentyl-2,6-dimethylpiperazin-1-yl)methyl)benzamide] | <13 | > 1000 | 12500 |
| CC(C)=CCN1[C@H](C)CN(Cc2ccc(C(=O)NO)cc2)C[C@@H]1C [Compound 272, 4-(((3R,5S)-3,5-dimethyl-4-(3-methylbut-2-en-1-yl)piperazin-1-yl)methyl)-N-hydroxybenzamide] | 67 | 182 | 12200 |
| CC(C)N1C[C@@H](C)N(Cc2ccc(C(=O)NO)cc2)[C@@H](C)C1 [Compound 273, N-hydroxy-4-(((2S,6R)-4-isopropyl-2,6-dimethylpiperazin-1-yl)methyl)benzamide] | 31 | 441 | 13700 |
| CCCCN1C[C@@H](C)N(Cc2ccc(C(=O)NO)cc2)[C@@H](C)C1 [Compound 274, 4-(((2S,6R)-4-butyl-2,6-dimethylpiperazin-1-yl)methyl)-N-hydroxybenzamide] | 36 | 378 | 13500 |
| CCCCN1[C@H](C)CN(Cc2ccc(C(=O)NO)cc2)C[C@@H]1C [Compound 275, 4-(((3R,5S)-4-butyl-3,5-dimethylpiperazin-1-yl)methyl)-N-hydroxybenzamide] | >21 | 475 | > 10000 |
